In US9873709B2 (priority 2013, dated 2018):
Structures can show the parent of a compound that is named as a salt. Where two headings read alike, the source gives them in different places.

Columns and labels:
[1] = target: isolated recombinant JAK2 kinase domain (Homo sapiens (Human), UniProt O60674); assay: biochemical
[2] = system: JAK1-dependent STAT6 phosphorylation downstream of IL-13 stimulation in TF-1 human erythroleukemia cells; assay: cells; settings: TF-1, read-out: IL-13-pSTAT6 IC50
[3] = system: JAK1-dependent STAT6 phosphorylation downstream of IL-13 stimulation in TF-1 human erythroleukemia cells; settings: read-out: IL-13-pSTAT6 IC50, TF-1 cells
[4] = system: JAK1-dependent STAT6 phosphorylation downstream of IL-13 stimulation in BEAS-2B human bronchial epithelial cells; assay: cells; settings: read-out: IL13-pSTAT6 BEASB2B IC50

Chain of isolated recombinant JAK2 kinase domain (O60674 849-1124): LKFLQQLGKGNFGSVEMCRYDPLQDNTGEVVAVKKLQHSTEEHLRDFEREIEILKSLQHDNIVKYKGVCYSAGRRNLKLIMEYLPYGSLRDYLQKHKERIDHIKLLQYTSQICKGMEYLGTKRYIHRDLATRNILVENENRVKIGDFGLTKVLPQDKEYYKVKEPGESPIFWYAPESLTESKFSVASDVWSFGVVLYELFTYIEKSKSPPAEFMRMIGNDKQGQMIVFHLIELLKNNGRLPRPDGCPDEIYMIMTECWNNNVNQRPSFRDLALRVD

Structure (SMILES) | Ki [1] | IC50 [2] | IC50 [3] | IC50 [4]
CC(=O)N1CCN(c2cccn3nc(Nc4ccc(C(=O)N(C)C5CCN(C)CC5)cc4)nc23)CC1 [Example 1-10, 4-[[8-(4-acetylpiperazin-1-yl)-[1,2,4]triazolo[1,5-a]pyridin-2-yl]amino]-N-methyl-N-(1-methyl-4-piperidyl)benzamide] | 74.7 nM | > 10000 nM |  | 
CN1CCC(N(C)C(=O)c2ccc(Nc3nc4c(C5=CCN(C(=O)C6CCC(C#N)CC6)CC5)cccn4n3)cc2)CC1 (centres unmarked) [Example 2-285, 4-[[8-[1-(4-cyanocyclohexanecarbonyl)-3,6-dihydro-2H-pyridin-4-yl]-[1,2,4]triazolo[1,5-a]pyridin-2-yl]amino]-N-methyl-N-(1-methyl-4-piperidyl)benzamide] |  |  | 739 nM | 
CN1CCC(N(C)C(=O)c2ccc(Nc3nc4c(N5CCCCC5)cccn4n3)cc2)CC1 [Example 1-12, N-methyl-N-(1-methyl-4-piperidyl)-4-[[8-(1-piperidyl)-[1,2,4]triazolo[1,5-a]pyridin-2-yl]amino]benzamide; dihydrochloride] | 77.5 nM | 3400 nM |  | 
CN1CCC(N(C)C(=O)c2ccc(Nc3nc4c(N5C[C@@H]6C[C@](O)(c7ccccc7)C[C@@H]6C5)cccn4n3)cc2)CC1 [Example 1-292] | 18.5 nM |  |  | 
CN1CCC(N(C)C(=O)c2ccc(Nc3nc4c(N5CCN(c6ccccc6)CC5)cccn4n3)cc2)CC1 [Example 1-13, N-methyl-N-(1-methyl-4-piperidyl)-4-[[8-(4-phenylpiperazin-1-yl)-[1,2,4]triazolo[1,5-a]pyridin-2-yl]amino]benzamide] | 13.1 nM | 494 nM |  | 
CNC(=O)C1CN(C(C)C)CCN1C(=O)c1ccc(Nc2nc3c(C4=CCN(C(=O)CCC(F)(F)F)CC4)cccn3n2)cc1 (centres unmarked) [Example 2-327, 4-isopropyl-N-methyl-1-[4-[[8-[1-(4,4,4-trifluorobutanoyl)-3,6-dihydro-2H-pyridin-4-yl]-[1,2,4]triazolo[1,5-a]pyridin-2-yl]amino]benzoyl] piperazine-2-carboxamide] |  |  | 19.9 nM | 
CN1CCC(N(C)C(=O)c2ccc(Nc3nc4c(N5CCC(C(C)(C)O)CC5)cccn4n3)cc2)CC1 [Example 1-29, 4-[[8-[4-(1-hydroxy-1-methyl-ethyl)-1-piperidyl]-[1,2,4]triazolo[1,5-a]pyridin-2-yl]amino]-N-methyl-N-(1-methyl-4-piperidyl)benzamide] | 47.4 nM |  |  | 

The remaining compounds from weak to strong by Ki [1], led by results:

Ki [1] | IC50 [2] | Structure (SMILES) | IC50 [3] | IC50 [4]
6.7 nM | 76.3 nM | CN1CCC(N(C)C(=O)c2ccc(Nc3nc4c(N5CCC(O)(c6ccc(F)cc6)CC5)cccn4n3)cc2)CC1 [Example 1-37, 4-[[8-[4-(4-fluorophenyl)-4-hydroxy-1-piperidyl]-[1,2,4]triazolo[1,5-a]pyridin-2-yl]amino]-N-methyl-N-(1-methyl-4-piperidyl)benzamide] |  | 
6.28 nM | 235 nM | CN1CCC(N(C)C(=O)c2ccc(Nc3nc4c(N5CCC(C#N)CC5)cccn4n3)cc2)CC1 [Example 1-11, 4-[[8-(4-cyano-1-piperidyl)-[1,2,4]triazolo[1,5-a]pyridin-2-yl]amino]-N-methyl-N-(1-methyl-4-piperidyl)benzamide] |  | 
5.59 nM | 152 nM | CC(C)c1ccc(C2(O)CCN(c3cccn4nc(Nc5ccc(C(=O)N(C)C6CCN(C)CC6)cc5)nc34)CC2)cc1 [Example 1-38, 4-[[8-[4-hydroxy-4-(4-isopropylphenyl)-1-piperidyl]-[1,2,4]triazolo[1,5-a]pyridin-2-yl]amino]-N-methyl-N-(1-methyl-4-piperidyl)benzamide] |  | 
1.51 nM | 23.2 nM | O=C(c1ccc(Nc2nc3c(N4CCC(O)(c5ccc(Cl)cc5)CC4)cccn3n2)cc1)N1CCNCC1 [Example 1-177, [4-[[8-[4-(4-chlorophenyl)-4-hydroxy-1-piperidyl]-[1,2,4]triazolo[1,5-a]pyridin-2-yl]amino]phenyl]-piperazin-1-yl-methanone] |  | 
0.92 nM | 189 nM | NCCNC(=O)c1ccc(Nc2nc3c(N4CCC(O)(c5ccc(Cl)cc5)CC4)cccn3n2)cc1 [Example 1-175, N-(2-aminoethyl)-4-[[8-[4-(4-chlorophenyl)-4-hydroxy-1-piperidyl]-[1,2,4]triazolo[1,5-a]pyridin-2-yl]amino]benzamide] |  | 
0.15 nM | 15.5 nM | CNC1CN(C(=O)c2ccc(Nc3nc4c(N5CCC(CO)(c6ccc(Cl)cc6)CC5)cccn4n3)cc2)C1 [Example 1-283, [4-[[8-[4-(4-chlorophenyl)-4-(hydroxymethyl)-1-piperidyl]-[1,2,4]triazolo[1,5-a]pyridin-2-yl]amino]phenyl]-[3-(methylamino)azetidin-1-yl]methanone] |  | 31.3 nM
